# Marks after values point to notes of the source that are not given here.
# Experiments:
# [1] = Critical micelle concentration by conductometric measurements; format: physicochemical; details: aqueous solution, 25 °C
# Description: Values of critical micelle concentrations (CMC) of cationic surfactants were measured conductrometrically. N5721 conductometer (Tel-Eko Projekt sp z o.o., Poland), equipped with N5981 probe, was calibrated using 0.1 M, 0.01 M and 0.001 M KCl aqueous solutions (conductivities equal to 1.287 S/m, 0.141 S/m and 0.0147 S/m, respectively) and used without temperature compensation mode (constant temperature 25 °C was kept during all calibration procedures and measurements). Values of specific conductivities of at least 15 different concentrations for each surfactant were measured and plotted versus concentration; the discontinuity point was used to determine critical micelle concentration.
# [2] = test system: S. aureus ATCC 6538; assay: MIC/MBC microdilution; format: cell-based, Staphylococcus aureus; details: S. aureus ATCC 6538; for Minimal bactericidal concentration (*MBC): 99.9% reduction; for Minimal inhibitory concentration (MIC): 24 h, 37 °C, >90% growth inhibition
# Description: (§1) The minimum inhibitory concentration (MIC) of the tested monomeric QAS was performed using the microdilution method according to CLSI recommendation (M27-A3). Concentrations from 10 to 1280 µM were analyzed. Strains were incubated with or without compounds (growth control) for 24 h at 37 °C. Three independent replicates were performed. The MIC value was determined spectrophotometrically and the concentration that inhibited more than 90% of growth was determined. Optical density was measured at λ = 590 nm using a 96-well microplate reader (Bio-Rad Universal Hood II).
# (§2) To determine the minimum bactericidal concentration (MBC), 10 µL of bacterial suspension incubated with monomeric QAS (MIC concentration and two times higher) was transferred to plates with LB (1% tryptone, 1% yeast extract, 0.5% NaCl) medium. […] The concentration that reduced 99.9% of microbial growth was determined as MBC[54].
# [3] = test system: S. aureus MRSA R98; assay: MIC/MBC microdilution; format: cell-based, Staphylococcus aureus; details: for Minimal bactericidal concentration (*MBC): 99.9% reduction; for Minimal inhibitory concentration (MIC): 24 h, 37 °C, >90% growth inhibition
# Description: as §1, §2
# [4] = test system: P. aeruginosa PAO1; assay: Adhesion to glass; format: cell-based, Pseudomonas aeruginosa; details: concentration not given
# [5] = test system: E. coli ATCC 11229; assay: MIC/MBC microdilution; format: cell-based, Escherichia coli; details: E. coli ATCC 11229; for Minimal bactericidal concentration (*MBC): 99.9% reduction; for Minimal inhibitory concentration (MIC): 24 h, 37 °C, >90% growth inhibition
# Description: as §1, §2
# [6] = test system: E. coli H64; assay: MIC/MBC microdilution; format: cell-based, Escherichia coli; details: E. coli H64; for Minimal bactericidal concentration (*MBC): 99.9% reduction
# Description: as §1, §2
# [7] = test system: S. epidermidis B374; assay: MIC/MBC microdilution; format: cell-based, Staphylococcus epidermidis; details: S. epidermidis B374
# Description: as §1, §2
# [8] = test system: S. epidermidis ATCC 35984; assay: MIC/MBC microdilution; format: cell-based, Staphylococcus epidermidis; details: for Minimal bactericidal concentration (*MBC): 99.9% reduction; for Minimal inhibitory concentration (MIC): 24 h, 37 °C, >90% growth inhibition
# Description: as §1, §2
# [9] = test system: S. epidermidis SI8; assay: MIC/MBC microdilution; format: cell-based, Staphylococcus epidermidis; details: for Minimal bactericidal concentration (*MBC): 99.9% reduction; for Minimal inhibitory concentration (MIC): 24 h, 37 °C, >90% growth inhibition
# Description: as §1, §2
# [10] = test system: Salmonella typhimurium TA100; assay: Mutagenicity (Ames test); format: cell-based; details: for Number of colonies: ± SD
# Description: (§3) Two reference strains of Salmonella Typhimurium TA98 and Salmonella Typhimurium TA100, deficient in histidine synthesis, were used for this study according to the method proposed by Ames et al. with modifications. […] The mixture was mixed and poured onto a Davis minimal medium plate. The mixture without the test compound was used as a negative control. The positive control was a mixture of bacterial culture, biotin-histidine solution, and sodium azide (at a concentration of 15 μg/mL for strain TA100) or acriflavine (at a concentration of 100 μg/mL for strain TA98). Plates were incubated for 48 h at 37 °C, and then colonies were counted. The mutagenicity ratio (MR), the ratio of the number of revertants grown in the presence of the test compound to the number of spontaneously occurring revertants (negative control), was calculated. A mutagenic ratio equal to or greater than 1.7 indicates the mutagenic potential of the tested compounds. The study was performed in three times.
# [11] = test system: Salmonella typhimurium TA98; assay: Mutagenicity (Ames test); format: cell-based; details: for Number of colonies: ± SD
# Description: as §3
# [12] = test system: P. aeruginosa ATCC 27853; assay: MIC/MBC microdilution; format: cell-based, Pseudomonas aeruginosa; details: P. aeruginosa ATCC 27853; for Minimal bactericidal concentration (*MBC): 99.9% reduction; for Minimal inhibitory concentration (MIC): 24 h, 37 °C, >90% growth inhibition
# Description: as §1, §2
# [13] = test system: P. aeruginosa PAO1; assay: MIC/MBC microdilution; format: cell-based, Pseudomonas aeruginosa; details: for Minimal bactericidal concentration (*MBC): 99.9% reduction; for Minimal inhibitory concentration (MIC): 24 h, 37 °C, >90% growth inhibition
# Description: as §1, §2
# [14] = test system: S. epidermidis B374; assay: Adhesion to polystyrene plate; format: cell-based, Staphylococcus epidermidis; details: 1280 µM
# Description: Adhesion analysis to polystyrene surfaces was determined according to the method of Rodrigues et al. with modifications. Polystyrene 96-well plates were incubated with the respective compound concentrations (10–1280 µM) for 4 h at 37 °C with 100 rpm shaking. The plates were then washed with miliQ and inoculated with 100 µL of bacterial suspension (OD = 0.4–0.6). Plates were incubated for 6 h at 37 °C with 100 rpm shaking. Wells were rinsed and fixed for 20 min at 60 °C. They were then […] with 0.1% crystal violet solution for 5 min. The wells were washed with miliQ until the unfixed dye was completely eluted. The absorbance at λ = 590 nm was measured using a reader (Bio-Rad Universal Hood II). The positive control was a surface not treated with QAS. Three independent trials were performed.
# [15] = 24 h, 37 °C, >90% growth inhibition
# [16] = 24 h, 37 °C, >90% growth inhibition, read-out: Minimal inhibitory concentration (MIC)
smiles,measurement,setting,value
CCCCCCCCCCCC(=O)N(C)CCC[N+](C)(C)C.[Br-] [BrC12],CMC,[1],0.0086 mol/L
same,Minimal bactericidal concentration (*MBC),[2],1280 *1280 µM
same,Minimal inhibitory concentration (MIC),[2],1280 *1280 µM
same,Minimal bactericidal concentration (*MBC),[3],640 *640 µM
same,Minimal inhibitory concentration (MIC),[3],640 *640 µM
same,reduction of adhesion to glass,[4],approximately 20%
same,Minimal bactericidal concentration (*MBC),[5],1280 *1280 µM
same,Minimal inhibitory concentration (MIC),[5],1280 *1280 µM
same,Minimal bactericidal concentration (*MBC),[6],1280 *1280 µM
same,Minimal inhibitory concentration (MIC),[6]; [15],1280 *1280 µM
same,Minimal bactericidal concentration (*MBC),[7]; 99.9% reduction,640 *640 µM
same,Minimal inhibitory concentration (MIC),[7]; [15],640 *640 µM
same,Minimal bactericidal concentration (*MBC),[8],640 *640 µM
same,Minimal inhibitory concentration (MIC),[8],640 *640 µM
same,Minimal bactericidal concentration (*MBC),[9],640 *640 µM
same,Minimal inhibitory concentration (MIC),[9],640 *640 µM
same,mutagenicity index (MR),"[10]; base pair substitution type mutations, MR >= 1.7 indicates mutagenic potential",< 1.7
same,Mutagenicity index,[10]; ¼ MIC,1.41
same,Number of colonies,[10]; ¼ MIC,179.3 ± 13.9
same,Mutagenicity index,[10]; ½ MIC,1.15
same,Number of colonies,[10]; ½ MIC,146 ± 18.5
same,mutagenicity index (MR),"[11]; reading frame shift type mutation, MR >= 1.7 indicates mutagenic potential",above 1.7
same,Mutagenicity index,[11]; ¼ MIC,0.78
same,Number of colonies,[11]; ¼ MIC,20 ± 1.4
same,Mutagenicity index,[11]; ½ MIC,1.98
same,Number of colonies,[11]; ½ MIC,50.5 ± 6.4
same,Minimal bactericidal concentration (*MBC),[12],1280 *1280 µM
same,Minimal inhibitory concentration (MIC),[12],1280 *1280 µM
same,Minimal bactericidal concentration (*MBC),[13],> 1280 * > 1280 µM
same,Minimal inhibitory concentration (MIC),[13],> 1280 * > 1280 µM
CCCCCCCCCCCCCC(=O)N(C)CCC[N+](C)(C)C.[Br-] [BrC14],CMC,[1],0.0025 mol/L
same,Minimal bactericidal concentration (*MBC),[2],320 *320 µM
same,Minimal inhibitory concentration (MIC),[2],320 *320 µM
same,Minimal bactericidal concentration (*MBC),[3],320 *320 µM
same,Minimal inhibitory concentration (MIC),[3],320 *320 µM
same,reduction of adhesion to glass,[4],approximately 20%
same,reduced adhesion to polystyrene,[14],82%
same,Minimal bactericidal concentration (*MBC),[5],> 1280 * > 1280 µM
same,Minimal inhibitory concentration (MIC),[5],> 1280 * > 1280 µM
same,Minimal bactericidal concentration (*MBC),[6],320 *320 µM
same,Minimal inhibitory concentration (MIC),[6]; [15],320 *320 µM
same,Minimal bactericidal concentration (*MBC),[7]; 99.9% reduction,640 * > 640 µM
same,Minimal inhibitory concentration (MIC),[7]; [15],640 * > 640 µM
same,Minimal bactericidal concentration (*MBC),[8],160 *160 µM
same,Minimal inhibitory concentration (MIC),[8],160 *160 µM
same,Minimal bactericidal concentration (*MBC),[9],160 *160 µM
same,Minimal inhibitory concentration (MIC),[9],160 *160 µM
same,Mutagenicity index,[10]; ¼ MIC,1.24
same,Number of colonies,[10]; ¼ MIC,158 ± 19.8
same,Mutagenicity index,[10]; ½ MIC,1.16
same,Number of colonies,[10]; ½ MIC,147.5 ± 21.9
same,Mutagenicity index,[11]; ¼ MIC,0.73
same,Number of colonies,[11]; ¼ MIC,18.7 ± 6.4
same,Mutagenicity index,[11]; ½ MIC,0.84
same,Minimal bactericidal concentration (*MBC),[12],1280 *1280 µM
same,Minimal inhibitory concentration (MIC),[12],1280 *1280 µM
same,Minimal bactericidal concentration (*MBC),[13],> 1280 * > 1280 µM
same,Minimal inhibitory concentration (MIC),[13],> 1280 * > 1280 µM
"CCCCCCCCCCCCCCN(C)CCC[N+](C)(C)C.COC(=O)[O-] [MeC14, [(3-tetradecyilomethyloamine)propyl] trimethylammonium methylcarbonate]",CMC,[1],0.0041 mol/L
same,Minimal bactericidal concentration (*MBC),[2],80 *80 µM
same,Minimal inhibitory concentration (MIC),[2],80 *80 µM
same,Minimal bactericidal concentration (*MBC),[3],80 *80 µM
same,Minimal inhibitory concentration (MIC),[3],80 *80 µM
same,Minimal bactericidal concentration (*MBC),[5],320 *320 µM
same,Minimal inhibitory concentration (MIC),[5],320 *320 µM
same,Minimal bactericidal concentration (*MBC),[6],80 *80 µM
same,Minimal inhibitory concentration (MIC),[6]; [15],80 *80 µM
same,MIC,[6]; [16],80 µM
same,MBC,"[7]; 99.9% reduction, read-out: Minimal bactericidal concentration (*MBC)",160 µM
same,MIC,[7]; [16],80 µM
same,Minimal bactericidal concentration (*MBC),[8],40 *40 µM
same,Minimal inhibitory concentration (MIC),[8],40 *40 µM
same,Minimal bactericidal concentration (*MBC),[9],40 *40 µM
same,Minimal inhibitory concentration (MIC),[9],40 *40 µM
same,Mutagenicity index,[10]; ¼ MIC,1.17
same,Number of colonies,[10]; ¼ MIC,329.5 ± 20.5
same,Mutagenicity index,[10]; ½ MIC,1.10
same,Number of colonies,[10]; ½ MIC,310 ± 17.3
same,Mutagenicity index,[11]; ¼ MIC,0.57
same,Number of colonies,[11]; ¼ MIC,13 ± 2.8
same,Mutagenicity index,[11]; ½ MIC,0.95
same,Number of colonies,[11]; ½ MIC,21.7 ± 3.5
same,Minimal bactericidal concentration (*MBC),[12],1280 * > 1280 µM
same,Minimal inhibitory concentration (MIC),[12],1280 * > 1280 µM
same,Minimal bactericidal concentration (*MBC),[13],> 1280 * > 1280 µM
same,Minimal inhibitory concentration (MIC),[13],> 1280 * > 1280 µM

# Reference: paper PMC9757636, “The effectiveness of newly synthesized quaternary ammonium salts differing in chain length and type of counterion against priority human pathogens” (Scientific Reports, 2022)
